Experimental data published in article PMC5601738, “Facile total synthesis of lysicamine and the anticancer activities of the Ru^II, Rh^III, Mn^II and Zn^II complexes of lysicamine” (Oncotarget, 2017).
Values joined by “and” are separate entries in the source; they are usually repeats but may differ in a detail not shown here. Equal entries are not always repeated. Where two headings read alike, the source gives them in different places.

How the values were obtained:
[1] = tested on: HepG2; assay: MTT assay, HepG2 cells; settings: for IC50: read-out: IC50 HepG2
[2] = tested on: NCI-H460; assay: MTT assay, NCI-H460 cells; format: cell-based, human; settings: 48 h; for IC50: MTT, mean ± SD from five independent experiments
[3] = tested on: T-24; assay: MTT assay, T-24 cells; format: cell-based, human; settings: 48 h; for IC50: MTT, mean ± SD from five independent experiments
[4] = tested on: BEL-7404; assay: MTT assay, BEL-7404 cells; format: cell-based, human; settings: 48 h; for IC50: MTT, mean ± SD from five independent experiments
[5] = tested on: HL-7702 normal liver cell; assay: MTT assay, HL-7702 normal liver cell; format: cell-based; settings: 48 h; for IC50: MTT, mean ± SD from five independent experiments
[6] = tested on: HepG2 xenograft; assay: HepG2 xenograft model
[7] = tested on: pBR322 plasmid DNA; assay: Agarose gel electrophoresis assay with pBR322 plasmid DNA; format: biochemical; settings: pBR322 0.5 μg/μL, TBE buffer pH=8.5, 10 to 100 μM
Procedure: The DNA cleavage activity of 2, 3 and LY were tested by agarose gel electrophoresis assay using pBR322 plasmid DNA (0.5 μg/μL) in TBE buffer (pH=8.5). […] In contrast, under the same experimental conditions, when the concentration of 2 increased from 10 μM to 50 μM, the mobility of supercoiled DNA (form I) was reduced, but the relaxed form (form II) was not observed. When the concentration of 2 increased further to 70 μM, the form II DNA appeared. Almost all supercoiled DNA (form I) changed to relaxed DNA (form II) when the concentration of 2 reached 90 and 100 μM.
RT-qPCR was performed. The threshold cycle (Ct) values approval no. SCXK 2014-0002 and SYXK 2014-0003), […]
were housed at a sterile environment with conditions of […]
than 3 days before used. Complexes and LYwere all […]
is limited in 1% in final working solutions. KM mice. The large concentration of 2 in 10% (v/v) […]
ct-DNA CD spectrum as control.
The HepG2 xenograft mice were induced by
37 °C in the dark for 4 h.
The percent weight loss or gain was calculated […]
imaging system under a UV-Vis transilluminator.. Percent tumour growth inhibition after initiation of treatment with 2 and cisplatin were calculated by TGI= […]
initial for control group).
Animals were supplied by Guangxi Medical
University Laboratory Animal Centre (Guangxi, China, […]

[8] = tested on: ct-DNA; assay: CD absorption spectrometry assay with ct-DNA; format: binding; settings: ct-DNA 1×10^−4 M, [DNA]/[compound] 10:0.5 to 10:2.0
[9] = tested on: HepG2 cells; assay: Cell cycle analysis by flow cytometry; format: cell-based, human; settings: HepG2, 24 h
[10] = metal salts 1× 10-4 mol/L, 48 h

| Compound | inhibitive ratio Hep-G2 [1, 10] [%] | inhibitive ratio NCI-H460 ([2]; metal salts 1× 10-4 mol/L) [%] | inhibitive ratio T-24 ([3]; metal salts 1× 10-4 mol/L) [%] | inhibitive ratio BEL-7404 ([4]; metal salts 1× 10-4 mol/L) [%] | inhibitive ratio HL-7702 ([5]; metal salts 1× 10-4 mol/L) [%] | inhibitive ratio Hep-G2 ([1]; 20 μmol/L, 48 h) [%] | inhibitive ratio NCI-H460 ([2]; 20 μmol/L) [%] | inhibitive ratio T-24 ([3]; 20 μmol/L) [%] | inhibitive ratio BEL-7404 ([4]; 20 μmol/L) [%] | inhibitive ratio HL-7702 ([5]; 20 μmol/L, normal liver cell) | further results |
| --- | --- | --- | --- | --- | --- | --- | --- | --- | --- | --- | --- |
| O.O.O.O.O.O.[Mn+2].[O-][Cl+3]([O-])([O-])[O-].[O-][Cl+3]([O-])([O-])[O-] [Mn(ClO4)2·6H2O, reference compound] | 18.52±0.67 | 30.12±0.46 | 24.08±1.86 | 25.84±1.36 | 23.06±1.64 | – | – | – | – | – | – |
| N.N.[Cl][Pt][Cl] [Cisplatin, cisplatin, reference compound] | – | – | – | – | – | 60.63±0.99 | 53.88±1.29 | 47.58±2.05 | 55.15±1.18 | 68.95±1.42% and 68.9% | IC50 ([1]; MTT, 48 h, mean ± SD from five independent experiments): 18.5 ± 0.78 µM; IC50 [2]: 18.3 ± 1.02 µM; IC50 [3]: 28.1 ± 1.88 µM; IC50 [4]: 12.4 ± 0.38 µM; BW% (body weight change) ([6]; 2.0 mg/kg per 2 days): -25.8%; loss in body weight ([6]; 2.0 mg/kg per 2 days): 25.8%; TGI ([6]; 2.0 mg/kg per 2 days i.p.): 83.16%; IC50 ([5]; normal liver cell): 15.7 ± 1.27 µM |
| O.O.O.[Cl][Rh]([Cl])[Cl] [RhCl3·3H2O, reference compound] | 24.02±1.02 | 25.41±1.25 | 27.09±1.11 | 35.29±0.97 | 30.12±1.57 | – | – | – | – | – | – |
| COc1cc2ccnc3c2c(c1OC)-c1ccccc1C3=O [LY, lysicamine] | – | – | – | – | – | 53.13±1.19 | 52.85±0.32 | 42.40±2.14 | 32.27±1.73 | 45.49±0.78% and 45.5% | IC50 ([1]; Homo sapiens, HepG2, 48 h): 23.9 ± 0.41 µM; DNA cleavage activity on supercoiled pBR322 DNA [7]: did not change the supercoiled DNA and its migration rate; change of CD spectrum of ct-DNA / binding [8]: the binding was weak; effect on cell cycle progression [9]: only blocked the cell cycle in the G1 phase; IC50 ([2]; Homo sapiens, NCI-H460): 19.14 ± 0.18 µM; IC50 ([3]; Homo sapiens, T-24): 34.5 ± 1.96 µM; IC50 ([4]; Homo sapiens, BEL-7404): 47.5 ± 1.65 µM; IC50 ([5]; Homo sapiens, L02, normal liver cell): 29.3 ± 0.72 µM |
